A value given as a limit tells only on which side of the number the result lay.

As a reminder, the inhibition is the relative decrease from the control value, in per cent. What is called IC50 is the concentration that inhibits the measured activity by half.

In one assay the target is BCL-2 recombinant protein (Homo sapiens, UniProt P10415). Kind of assay: Cell free Bcl-2:Bak affinity assay (Bcl-2 Bak), HTRF competition of FAM-Bak peptide. The format is binding. The note with it: 1 μM compound, 4 nM BCL-2 recombinant protein, 100 nM FAM-Bak, read-out: potency (% inhibition at 1 μM). The procedure: Biological Assays: Cell Free Bcl-2:Bak Affinity Assay (Bcl-2 Bak)
BCL-2 recombinant protein, sequence (P10415 whole entry): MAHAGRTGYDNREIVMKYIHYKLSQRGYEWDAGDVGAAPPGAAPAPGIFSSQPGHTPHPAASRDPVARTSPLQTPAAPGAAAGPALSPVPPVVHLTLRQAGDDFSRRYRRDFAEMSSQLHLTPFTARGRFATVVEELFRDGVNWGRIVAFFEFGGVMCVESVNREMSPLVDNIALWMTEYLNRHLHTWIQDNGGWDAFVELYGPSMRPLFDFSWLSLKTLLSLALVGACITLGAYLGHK
The assay is based on the competition of fluorescently labeled peptide binding to BCL-2 and the binding is monitored by HTRF signals between anti-GST-Tb and FAM-peptide using GST-Tag BCL proteins. Testing compounds were dissolved in DMSO at 10 mM and tested in 10-concentration IC50 mode. The compounds of interest in DMSO were added in 3-fold serial dilution to each well containing 4 nM of BCL-2 recombinant protein, 20 mM K Phosphate, pH 7.5, 50 mM NaCl, 1 mM EDTA, 0.005% Triton X-100, by using acoustic technology (Labcyte echo 550), After 10 minutes incubation at room temperature, 100 nM of FAM-Bak was added and incubated for another 10 minutes before addition of Anti-GST-Tb. The plate was then sealed and further incubated at room temperature for 60 minutes in the dark before reading. Percentage of inhibition was calculated by % inhibition=100×(FDMSO−F)/(FDMSO−FPC), in which FDMSO is DMSO control and FPC is a positive control. IC50 values were determined from dose-response curve by fitting the percent inhibition against compound concentration using GraphPad Prism software.
(In TR-FRET formats the signal depends on donor and acceptor labels being close together.)
On to `Cc1nn(C)c(C)c1-c1nc(C(=O)NS(=O)(=O)c2ccc(N3CCN(CC4=C(c5ccc(Cl)cc5)CC(C)(C)CC4)CC3)cc2)ccc1F` [Example 44, N-[4-[4-[[2-(4-chlorophenyl)-4,4-dimethylcyclohexen-1-yl]methyl]piperazin-1-yl]phenyl]sulfonyl-5-fluoro-6-(1,3,5-trimethylpyrazol-4-yl)pyridine-2-carboxamide], for which the inhibition at 1 µM lay within 50 to 90%.
Same read-out and setting: to `Cn1cc(-c2nc(C(=O)NS(=O)(=O)c3ccc(N4CCN(CC5=C(c6ccc(Cl)cc6)CC(C)(C)CC5)CC4)cc3)ccc2F)cn1` [Example 45, N-[4-[4-[[2-(4-chlorophenyl)-4,4-dimethylcyclohexen-1-yl]methyl]piperazin-1-yl]phenyl]sulfonyl-5-fluoro-6-(1-methyl-1H-pyrazol-4-yl)pyridine-2-carboxamide] belongs 50 to 90%; to `CC1(C)CCC(CN2CCN(c3ccc(S(=O)(=O)NC(=O)c4ccc(F)c(-n5ccnc5)n4)cc3)CC2)=C(c2ccc(Cl)cc2)C1` [Example 46, N-[4-[4-[[2-(4-chlorophenyl)-4,4-dimethylcyclohexen-1-yl]methyl]piperazin-1-yl]phenyl]sulfonyl-5-fluoro-6-(1H-imidazol-1-yl)pyridine-2-carboxamide], 50 to 90%.
Take `CC1(C)CCC(CN2CCN(c3ccc(S(=O)(=O)NC(=O)c4ccc(F)c(-c5cnc6c(c5)CC(=O)N6)n4)cc3)CC2)=C(c2ccc(Cl)cc2)C1` [Example 47, N-[4-[4-[[2-(4-chlorophenyl)-4,4-dimethylcyclohexen-1-yl]methyl]piperazin-1-yl]phenyl]sulfonyl-5-fluoro-6-(2-oxo-2,3-dihydro-1H-pyrrolo[2,3-b]pyridin-5-yl)pyridine-2-carboxamide]: the inhibition at 1 µM lay in the range of 50 to 90%.
Regarding `CC1(C)CCC(CN2CCN(c3ccc(S(=O)(=O)NC(=O)c4ccc(F)c(-c5ccc6[nH]ncc6c5)n4)cc3)CC2)=C(c2ccc(Cl)cc2)C1` [Example 48, N-[4-[4-[[2-(4-chlorophenyl)-4,4-dimethylcyclohexen-1-yl]methyl]piperazin-1-yl]phenyl]sulfonyl-5-fluoro-6-(1H-indazol-5-yl)pyridine-2-carboxamide], the inhibition at 1 µM was 50 to 90%.
Same read-out and setting: to `CC1(C)CCC(CN2CCN(c3ccc(S(=O)(=O)NC(=O)c4ccc(F)c(-c5ccc6[nH]nnc6c5)n4)cc3)CC2)=C(c2ccc(Cl)cc2)C1` [Example 49, 6-(1H-benzo[d][1,2,3]triazol-5-yl)-N-[4-[4-[[2-(4-chlorophenyl)-4,4-dimethylcyclohexen-1-yl]methyl]piperazin-1-yl]phenyl]sulfonyl-5-fluoro pyridine-2-carboxamide] belongs above 90%; to `Cn1ncc2cc(-c3nc(C(=O)NS(=O)(=O)c4ccc(N5CCN(CC6=C(c7ccc(Cl)cc7)CC(C)(C)CC6)CC5)cc4)ccc3F)ccc21` [Example 50, N-[4-[4-[[2-(4-chlorophenyl)-4,4-dimethylcyclohexen-1-yl]methyl]piperazin-1-yl]phenyl]sulfonyl-5-fluoro-6-(1-methyl-1H-indazol-5-yl)pyridine-2-carboxamide], 50 to 90%; to `CC1(C)CCC(CN2CCN(c3ccc(S(=O)(=O)NC(=O)c4ccc([N+](=O)[O-])c(OCc5ccccc5)n4)cc3)CC2)=C(c2ccc(Cl)cc2)C1` [Example 51, 6-(benzyloxy)-N-[4-[4-[[2-(4-chlorophenyl)-4,4-dimethylcyclohexen-1-yl]methyl]piperazin-1-yl]phenyl]sulfonyl-5-nitropyridine-2-carboxamide], 50 to 90%.
For the molecule `CC1(C)CCC(CN2CCN(c3ccc(S(=O)(=O)NC(=O)c4ccc(COc5ccccc5)c([N+](=O)[O-])c4)cc3)CC2)=C(c2ccc(Cl)cc2)C1` [Example 52, N-[4-[4-[[2-(4-chlorophenyl)-4,4-dimethylcyclohexen-1-yl]methyl]piperazin-1-yl]phenyl]sulfonyl-3-nitro-4-(phenoxymethyl)benzamide], the inhibition at 1 µM was in the range of 50 to 90%.
Turning to `CC1(C)CCC(CN2CCN(c3ccc(S(=O)(=O)NC(=O)c4ccc(F)c(OCc5ccccc5)c4)cc3)CC2)=C(c2ccc(Cl)cc2)C1` [Example 53, 3-(benzyloxy)-N-[4-[4-[[2-(4-chlorophenyl)-4,4-dimethylcyclohexen-1-yl]methyl]piperazin-1-yl]phenyl]sulfonyl-4-fluorobenzamide], the inhibition at 1 µM lay within 50 to 90%.
The same measure, in the same setting: to `CNc1c([N+](=O)[O-])cc(C(=O)NS(=O)(=O)c2ccc(N3CCN(CC4=C(c5ccc(Cl)cc5)CC(C)(C)CC4)CC3)cc2)c(Cl)c1C` [Example 54, 2-chloro-N-[4-[4-[[2-(4-chlorophenyl)-4,4-dimethylcyclohexen-1-yl]methyl]piperazin-1-yl]phenyl]sulfonyl-4-(methylamino)-3-methyl-5-nitrobenzamide] belongs 50 to 90%; to `COc1cc(-c2nc(C(=O)NS(=O)(=O)c3ccc(N4CCN(CC5=C(c6ccc(Cl)cc6)CC(C)(C)CC5)CC4)cc3)ccc2F)ccn1` [Example 55, N-[4-[4-[[2-(4-Chlorophenyl)-4,4-dimethylcyclohexen-1-yl]methyl]piperazin-1-yl]phenyl]sulfonyl-5-fluoro-6-(2-methoxypyridin-4-yl)pyridine-2-carboxamide], 50 to 90%.
On the same count and under the same terms, to `Cn1ccc(-c2nc(C(=O)NS(=O)(=O)c3ccc(N4CCN(CC5=C(c6ccc(Cl)cc6)CC(C)(C)CC5)CC4)cc3)ccc2F)cc1=O` [Example 56, N-[4-[4-[[2-(4-Chlorophenyl)-4,4-dimethylcyclohexen-1-yl]methyl]piperazin-1-yl]phenyl]sulfonyl-3-fluoro-1′-methyl-2′-oxo-1′,2′-dihydro-[2,4′-bipyridine]-6-carboxamide] belongs 50 to 90%; to `COc1ncc(-c2nc(C(=O)NS(=O)(=O)c3ccc(N4CCN(CC5=C(c6ccc(Cl)cc6)CC(C)(C)CC5)CC4)cc3)ccc2F)cn1` [Example 57, N-[4-[4-[[2-(4-Chlorophenyl)-4,4-dimethylcyclohexen-1-yl]methyl]piperazin-1-yl]phenyl]sulfonyl-5-fluoro-6-(2-methoxypyrimidin-5-yl)pyridine-2-carboxamide], 50 to 90%.
On the same count and under the same terms, to `Cn1cc(-c2nc(C(=O)NS(=O)(=O)c3ccc(N4CCN(CC5=C(c6ccc(Cl)cc6)CC(C)(C)CC5)CC4)cc3)ccc2F)ccc1=O` [Example 58, N-[4-[4-[[2-(4-Chlorophenyl)-4,4-dimethylcyclohexen-1-yl]methyl]piperazin-1-yl]phenyl]sulfonyl-3-fluoro-1′-methyl-6′-oxo-1′,6′-dihydro-[2,3′-bipyridine]-6-carboxamide] belongs 50 to 90%; to `CC1(C)CCC(CN2CCN(c3ccc(S(=O)(=O)NC(=O)c4ccc(F)c(-c5cn[nH]c5)n4)cc3)CC2)=C(c2ccc(Cl)cc2)C1` [Example 59, N-[4-[4-[[2-(4-Chlorophenyl)-4,4-dimethylcyclohexen-1-yl]methyl]piperazin-1-yl]phenyl]sulfonyl-5-fluoro-6-(1H-pyrazol-4-yl)pyridine-2-carboxamide], 50 to 90%.

Still in this assay, the particulars now being: 10-concentration IC50 mode, 4 nM BCL-2 recombinant protein, 100 nM FAM-Bak, read-out: potency (IC50).
In the case of `CCNc1c([N+](=O)[O-])cc(C(=O)NS(=O)(=O)c2ccc(N3CCN(CC4=C(c5ccc(Cl)cc5)CC(C)(C)CC4)CC3)cc2)c(Cl)c1C` [Example 43, 2-chloro-N-[4-[4-[[2-(4-chlorophenyl)-4,4-dimethylcyclohexen-1-yl]methyl]piperazin-1-yl]phenyl]sulfonyl-4-(ethylamino)-3-methyl-5-nitrobenzamide], the half-maximal inhibitory concentration (IC50) fell in the range of 100 to 1000 nM.

Source of the values: US11622970B2, “BCL-2 inhibitors and their use as pharmaceuticals” (PRELUDE THERAPEUTICS INCORPORATED, priority 2020, dated 2023).
